PubChem BioAssay AID720512 (Broad Institute, 2013)
Active and inactive are the calls of the source. The rule behind the calls is not given here.

Molecular target: Toxin B (TcdB) glycohydrolase, Clostridioides difficile 630
Experiment: TcdB glycohydrolase inhibitors, dose response, biochemical, cherry-pick, plate reader (AID 720512)
Conditions: recombinant TcdB glycohydrolase activity

COC(=O)C[C@@H]1CC[C@@H]2[C@H](COC[C@H](O)CN2C(=O)Nc2ccccc2OC)O1
activity change, negative = inhibition (at 19.5 µM (top of the series)): inactive

COc1ccc(CCNC(=O)CCCn2nc(C)n3ccnc3c2=O)cc1OC
activity change, negative = inhibition (at 19.5 µM (top of the series)): inactive

COCC(=O)N1CC[C@@H]2[C@H]1c1cc(-c3cccc(OC)c3)ccc1N(C)[C@H]2CO
activity change, negative = inhibition (at 21 µM (top of the series)): inactive

CN(C)c1ccc(C(=O)OCC#CCSc2nnc(-c3cccc4ccccc34)o2)cc1
activity change, negative = inhibition (at 19.5 µM (top of the series)): inactive

Cc1ccc(CSc2nc3nc(C)cc(C)c3c(=O)[nH]2)cc1
activity change, negative = inhibition (at 19.5 µM (top of the series)): inactive

COCC(=O)N1CC[C@@H]2[C@H]1c1cc(-c3ccccc3)ccc1N(C)[C@H]2CO
activity change, negative = inhibition (at 19.5 µM (top of the series)): inactive

N#Cc1ccc(C(=O)N/N=C/c2cn(CC(=O)O)c3ccccc23)c(F)c1
activity change, negative = inhibition (at 19.5 µM (top of the series)): inactive

O=C(O)c1ccc(-c2nnc(-c3ccccc3)o2)cc1
activity change, negative = inhibition (at 19.5 µM (top of the series)): inactive

COc1ccc(C2=NS(=O)(=O)N(C)C(C(=O)NCc3ccc4c(c3)OCO4)=C2)cc1
activity change, negative = inhibition (at 19.5 µM (top of the series)): inactive

Cn1ncc(Br)c1C(=O)N/N=C/c1cccc(OC2CSC2)c1
activity change, negative = inhibition (at 19.5 µM (top of the series)): inactive

COc1cc(/C=C(\C#N)C(=O)Nc2ccc3c(c2)OCCO3)ccc1O
activity change, negative = inhibition (at 19.5 µM (top of the series)): inactive

NS(=O)(=O)c1ccc(NC(=S)NCc2ccc3c(c2)OCO3)cc1
activity change, negative = inhibition (at 19.5 µM (top of the series)): inactive

O=c1c(OC2OC(CO)C(O)C(O)C2O)c(-c2ccc(O)c(O)c2)oc2cc(O)cc(O)c12 (configuration not stated)
activity change, negative = inhibition (at 10 µM (top of the series)): inactive

Oc1ccc(/C=N/Nc2ncnc3nc[nH]c23)cc1
activity change, negative = inhibition (at 19.5 µM (top of the series)): inactive

Cn1c(SCc2nnc(-c3ccccc3)o2)nc2ccccc21
activity change, negative = inhibition (at 19.5 µM (top of the series)): inactive

CCCSc1nc2c([nH]1)c(=O)n(C)c(=S)n2C
activity change, negative = inhibition (at 19.5 µM (top of the series)): inactive

Cn1c(=O)[nH]c(=O)c2c1[nH]c(=S)n2CCCc1ccccc1
activity change, negative = inhibition (at 19.5 µM (top of the series)): inactive

COc1ccc(/C=N/N=C2/NC(=O)C(CC(=O)NC(N)=O)S2)cc1 (configuration not stated)
activity change, negative = inhibition (at 19.5 µM (top of the series)): inactive

Cc1ccc(-n2c(SCC(=O)O)nc3c(sc(=S)n3-c3ccc(C)c(C)c3)c2=O)cc1
AC50: > 39 µM (inactive)

O=C(NCc1ccncc1)[C@@H]1CCCN1C(=O)[C@@H]1CCCN1
activity change, negative = inhibition (at 19.5 µM (top of the series)): inactive

Oc1ccc(CCNc2ncnc3ccc(Cl)cc23)cc1
activity change, negative = inhibition (at 19.5 µM (top of the series)): inactive

Cc1ccc(C(=O)NC(=S)NNC(=O)CC#N)cc1
activity change, negative = inhibition (at 19.5 µM (top of the series)): inactive

CNC(=O)N(O)C1N(/N=C/c2ccc(SC)cc2)C(=S)SC1(C)C (configuration not stated)
activity change, negative = inhibition (at 19.5 µM (top of the series)): inactive

CC1(C)OC2C(O1)[C@@H](CO)O[C@H]2n1cnc2c(N)ncnc21 (some centres not stated)
activity change, negative = inhibition (at 19.5 µM (top of the series)): inactive

CNC(=O)C[C@@H]1CC[C@H]2[C@H](COc3ccc(NS(=O)(=O)c4ccccc4C)cc3C(=O)N2C)O1
activity change, negative = inhibition (at 19.5 µM (top of the series)): inactive

COc1ccc(C=C2CCC3C(=O)CCCC3(C)C2=O)cc1 (configuration not stated)
activity change, negative = inhibition (at 19.5 µM (top of the series)): inactive

COc1cc2[nH]c(=S)nc(NCCC(C)C)c2cc1OC
activity change, negative = inhibition (at 19.5 µM (top of the series)): inactive

Cc1nc2[nH]c(=S)[nH]c2c(=O)[nH]1
activity change, negative = inhibition (at 19.5 µM (top of the series)): inactive

CCCNC(=O)N1CC[C@@H]2[C@H]1c1cc(-c3ccccc3)ccc1N(C)[C@H]2CO
activity change, negative = inhibition (at 19.5 µM (top of the series)): inactive

Clc1ccc(/C=C/c2ncc[nH]2)c(Cl)c1
activity change, negative = inhibition (at 19.5 µM (top of the series)): inactive

COc1ccc(CNCCc2ccc3c(c2)OCO3)cc1Br
activity change, negative = inhibition (at 19.5 µM (top of the series)): inactive

CC(=O)Nc1n[nH]c(=S)s1
activity change, negative = inhibition (at 19.5 µM (top of the series)): inactive

COC(=O)C(Cc1ccccc1)NC(=O)CSc1nc(C)cc(=O)[nH]1 (configuration not stated)
activity change, negative = inhibition (at 19.5 µM (top of the series)): inactive

CC1C(=O)NN=C1c1ccc([N+](=O)[O-])cc1 (configuration not stated)
activity change, negative = inhibition (at 19.5 µM (top of the series)): inactive

O=c1oc(-c2ccc(Br)cc2)nc2ccccc12
activity change, negative = inhibition (at 19.5 µM (top of the series)): inactive

CC1=C(C(=O)OCC2CCCO2)C(c2coc3ccccc3c2=O)C2=C(CCCC2=O)N1 (configuration not stated)
activity change, negative = inhibition (at 19.5 µM (top of the series)): inactive

Cc1ccc(C2=NS(=O)(=O)N(C)C(C(=O)NCc3ccccc3)=C2)cc1
activity change, negative = inhibition (at 19.5 µM (top of the series)): inactive
